Patent US10683486B2, “Methods for producing hepatocytes” (BioLamina AB, priority 2015, dated 2020)
Where two headings read alike, the source gives them in different places.

Tested on: stem cell derived hepatocytes
Assay: Hepatocyte function with Cameron and Avior procedures on laminin-221/laminin-521 substrates (Example 3)
Assay type: cell-based, human
From the text: Stem-cell derived hepatocytes were produced from human embryonic stem cells on three different substrates. The first substrate was pure laminin-521 (LN-521). The second substrate was a mix of laminin-521 and laminin-221 in a weight ratio of 1:3 (221 (1:3)). The third substrate was a mix of laminin-221 and laminin-521 in a weight ratio of 1:1 (221 (1:1)). The Cameron procedure and the Avior procedure were compared to each other.
FIG. 13 is a set of two bar graphs showing hepatocyte function of the two procedures. […] Such benefits were not observed using both MK4 and LCA.

SMILES	toxic effects on stem cell derived hepatocytes (Avior procedure, LCA and MK4 together, cell death at day 18)	toxic effects on stem cell derived hepatocytes
C[C@H](CCC(=O)O)[C@H]1CC[C@H]2[C@@H]3CC[C@@H]4C[C@H](O)CC[C@]4(C)[C@H]3CC[C@]12C [LCA, lithocholic acid]	major toxic effects	–
CC(C)=CCC/C(C)=C/CC/C(C)=C/CC/C(C)=C/CC1=C(C)C(=O)c2ccccc2C1=O [MK4, vitamin K (MK4)]	–	major toxic effects
